Source: patent publication US8865756B2, “Inhibitors of HCV NS5A” (Presidio Pharmaceuticals, Inc., priority 2008, dated 2014)

Test system: HCV 1b_Huh-Luc/Neo-ET cell line persistently expressing a bicistronic genotype 1b replicon in Huh 7 cells
Assay: HCV replicon assay (luciferase readout)
Format: cell-based
Conditions: Hepatitis C virus, Huh-7, 72 h, read-out: Inhibition of HCV genotype 1b
Procedure, shortened: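 Huh 7 cells carrying a genotype 1b luciferase/neo replicon treated in triplicate for 72 h, then luciferase activity measured. Signal expressed as % of control; EC50 from four-parameter logistic fit, determined several times.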

Row | Structure (SMILES) | EC50
1 | COC(=O)N[C@@H](C)C(=O)N1CCC[C@H]1c1ncc(-c2ccc(C#Cc3ccc(-c4cnc([C@@H]5CCCN5C(=O)[C@H](C)NC(=O)OC)[nH]4)cc3)cc2)[nH]1 [Compound 962] | < 1 nM
2 | CN(C)C(=O)N[C@@H](C(=O)N1CCC[C@H]1c1ncc(-c2ccc(C#Cc3ccc(-c4cnc([C@@H]5CCCN5C(=O)[C@H](NC(=O)N(C)C)c5ccccc5)[nH]4)cc3)cc2)[nH]1)c1ccccc1 [Compound 161] | < 1 nM
3 | CN(C)[C@@H](C(=O)N1CCC[C@H]1c1ncc(-c2ccc(C#Cc3ccc(-c4cnc([C@@H]5CCCN5C(=O)[C@H](NC(=O)C5CC5)c5ccccc5)[nH]4)cc3)cc2)[nH]1)c1ccccc1 [Compound 215] | < 1 nM
4 | CCOC(=O)N[C@@H](C(=O)N1CCC[C@H]1c1ncc(-c2ccc(C#Cc3ccc(-c4cnc([C@@H]5CCCN5C(=O)[C@H](NC(=O)OCC)c5ccccc5)[nH]4)cc3)cc2)[nH]1)c1ccccc1 [Compound 244] | < 1 nM
5 | COC(=O)N[C@@H](C(=O)N1CCC[C@H]1c1ncc(-c2ccc(C#Cc3ccc(-c4cnc([C@@H]5CCCN5C(=O)[C@H](NC(=O)N5CC[C@H](O)C5)c5ccccc5)[nH]4)cc3)cc2)[nH]1)c1ccccc1 [Compound 269] | < 1 nM
6 | COC(=O)N[C@H](C(=O)N1CCC[C@H]1c1ncc(-c2ccc(C#Cc3ccc4c(c3)CCCc3nc([C@@H]5CCCN5C(=O)[C@@H](NC(=O)OC)C(C)C)[nH]c3-4)cc2)[nH]1)C(C)C [Compound 1096] | < 1 nM
7 | CC(C)(C)OC(=O)N[C@@H](C(=O)N1CCC[C@H]1c1ncc(-c2ccc(C#Cc3ccc(-c4cnc([C@@H]5CCCN5C(=O)[C@H](NC(=O)OC(C)(C)C)c5ccccc5)[nH]4)cc3)cc2)[nH]1)c1ccccc1 [Compound 150] | < 1 nM
8 | COC(=O)N[C@@H](C(=O)N1CCC[C@H]1c1ncc(-c2ccc(C#Cc3ccc(-c4cnc([C@@H]5CCCN5C(=O)[C@H]5CCCO5)[nH]4)cc3)cc2)[nH]1)c1ccccc1 [Compound 177] | < 1 nM
9 | COC(=O)N[C@@H](C(=O)N1CCC[C@H]1c1ncc(-c2ccc(C#Cc3ccc(-c4cnc([C@@H]5CCCN5C(=O)[C@H](NC(=O)N5CCOCC5)c5ccccc5)[nH]4)cc3)cc2)[nH]1)c1ccccc1 [Compound 224] | < 1 nM
10 | COC(=O)N[C@@H](C(=O)N1CCC[C@H]1c1ncc(C#Cc2ccc(C#Cc3cnc([C@@H]4CCCN4C(=O)[C@@H](c4ccccc4)N4CCOCC4)[nH]3)cc2)[nH]1)c1ccccc1 [Compound 313] | < 1 nM
11 | COC(=O)N[C@H](C(=O)N1CCC[C@H]1c1nc(-c2ccc3cc(C#Cc4cnc([C@@H]5CCCN5C(=O)[C@H](NC(=O)OC)c5ccccc5)[nH]4)ccc3c2)c[nH]1)C(C)C [Compound 1077] | < 1 nM
12 | O=C(N[C@@H](C(=O)N1CCC[C@H]1c1cc(-c2ccc(C#Cc3ccc(-c4cnc([C@@H]5CCCN5C(=O)[C@H](NC(=O)N5CCOCC5)c5ccccc5)[nH]4)cc3)cc2)n[nH]1)c1ccccc1)N1CCOCC1 [Compound 220] | < 1 nM
13 | COC(=O)N[C@H](C(=O)N1CCC[C@H]1c1ncc(-c2ccc(C#Cc3ccc(-c4cnc([C@H](C)NC(=O)[C@@H](c5ccccc5)N(C)C)[nH]4)cc3)cc2)[nH]1)C(C)C [Compound 983] | < 1 nM
14 | COC(=O)N[C@@H](C(=O)N1CCC[C@H]1c1ncc(-c2ccc(C#Cc3ccc(-c4cnc([C@@H]5CCCN5C(=O)[C@H](C)c5ccccc5)[nH]4)cc3)cc2)[nH]1)c1ccccc1 [Compound 256] | < 1 nM
15 | COC(=O)N[C@H]1CCC[C@@H]1C(=O)N1CCC[C@H]1c1ncc(-c2ccc(C#Cc3ccc4nc([C@@H]5CCCN5C(=O)[C@H]5CCC[C@@H]5NC(=O)OC)[nH]c4c3)cc2)[nH]1 [Compound 1059] | 10 to 999 nM
16 | COC(=O)N[C@H](C(=O)N1CCC[C@H]1c1ncc(-c2ccc(C#Cc3ccc(-c4cnc([C@@H]5CCCN5C(=O)[C@H](NC(=O)N5CCC(C)(O)CC5)c5ccccc5)[nH]4)cc3)cc2)[nH]1)C(C)C [Compound 992] | < 1 nM
17 | CC(C)(C)OC(=O)N[C@@H](C(=O)N1CCC[C@H]1c1ncc(-c2ccc(C#Cc3ccc4nc([C@@H]5CCCN5C(=O)[C@H](NC(=O)OC(C)(C)C)c5ccccc5)[nH]c4c3)cc2)[nH]1)c1ccccc1 [Compound 801] | < 1 nM
18 | CC(C)[C@@H](C(=O)N1CCC[C@H]1c1ncc(-c2ccc(C#Cc3ccc(-c4cnc([C@@H]5CCCN5C(=O)[C@H](C(C)C)N5CCOC5=O)[nH]4)cc3)cc2)[nH]1)N1CCOC1=O [Compound 1006] | 10 to 999 nM

Row | Structure (SMILES) | EC50
19 | CNC(=O)N[C@@H](C(=O)N1CCC[C@H]1c1ncc(C#Cc2ccc(C#Cc3cnc([C@@H]4CCCN4C(=O)[C@H](NC(=O)NC)c4ccccc4)[nH]3)cc2)[nH]1)c1ccccc1 [Compound 307] | < 1 nM
20 | COC(=O)N[C@H](C(=O)N[C@@H](C)c1ncc(-c2ccc(C#Cc3ccc(-c4cnc([C@H](C)NC(=O)[C@@H](NC(=O)OC)[C@@H](C)OC)[nH]4)cc3)cc2)[nH]1)[C@@H](C)OC [Compound 952] | 1 to 9.9 nM
21 | COC(=O)N[C@@H](C(=O)N1CCC[C@H]1c1ncc(-c2ccc(C#Cc3ccc(-c4cnc([C@@H]5CCCN5C(=O)c5nccn5C)[nH]4)cc3)cc2)[nH]1)c1ccccc1 [Compound 176] | < 1 nM
22 | COC(=O)N[C@@H](C(=O)N1CCC[C@H]1c1ncc(-c2ccc(C#Cc3ccc(-c4cnc([C@@H]5CCCN5C(=O)[C@H](NC(=O)N5CCCC5)c5ccccc5)[nH]4)cc3)cc2)[nH]1)c1ccccc1 [Compound 243] | < 1 nM
23 | CC[C@H](NC(=O)OC)C(=O)N1CCC[C@H]1c1ncc(-c2ccc(C#Cc3ccc(-c4cnc([C@@H]5CCCN5C(=O)[C@H](CC)NC(=O)OC)[nH]4)cc3)cc2)[nH]1 [Compound 960] | < 1 nM
24 | CC(C)(C)OC(=O)N[C@@H](C(=O)N1CCC[C@H]1c1ncc(-c2ccc(C#Cc3ccc(-c4nnc([C@@H]5CCCN5C(=O)[C@H](NC(=O)OC(C)(C)C)c5ccccc5)[nH]4)cc3)cc2)[nH]1)c1ccccc1 [Compound 246] | < 1 nM
25 | COC(=O)N[C@@H](C(=O)N1CCC[C@H]1c1ncc(-c2ccc(C#Cc3ccc4nc([C@@H]5CCCN5C(=O)[C@H](NC(=O)OC)C(C)C)[nH]c4c3)cc2)[nH]1)C(C)C [Compound 861] | 10 to 999 nM
26 | COC(=O)N[C@H](C(=O)N1CCSC[C@H]1c1ncc(-c2ccc(C#Cc3ccc4nc([C@@H]5CCCN5C(=O)[C@@H](NC(=O)OC)C(C)C)[nH]c4c3)cc2)[nH]1)C(C)C [Compound 1062] | < 1 nM
27 | COC(=O)N[C@@H](C(=O)N1CCC[C@H]1c1ncc(C#Cc2ccc(-c3ccc(-c4cnc([C@@H]5CCCN5C(=O)[C@@H](c5ccccc5)N(C)C)[nH]4)cc3)cc2)[nH]1)c1ccccc1 [Compound 755] | < 1 nM
28 | CS(=O)(=O)N[C@@H](C(=O)N1CCC[C@H]1c1ncc(-c2ccc(C#Cc3ccc(-c4cnc([C@@H]5CCCN5C(=O)[C@@H](c5ccccc5)N5CCCC5)[nH]4)cc3)cc2)[nH]1)c1ccccc1 [Compound 230] | < 1 nM
29 | COC(=O)N[C@H](C(=O)N1CCC[C@H]1c1ncc(-c2ccc(C#Cc3ccc4nc([C@@H]5CCCN5C(=O)[C@@H](NC(=O)OC)C5CCOCC5)[nH]c4c3)cc2F)[nH]1)C1CCOCC1 [Compound 1070] | < 1 nM
30 | COC(=O)N[C@@H](C(=O)N1CCC[C@H]1c1ncc(-c2ccc(C#Cc3ccc(-c4cnc([C@@H]5CCCN5C(=O)[C@@H](c5ccccc5)N(C)C)[nH]4)cc3)cc2)[nH]1)c1ccccc1 [Compound 174] | < 1 nM
31 | COC(=O)N[C@@H](C(=O)N1CCC[C@H]1c1ncc(-c2ccc(C#Cc3ccc(-c4cnc([C@@H]5CCCN5C(=O)[C@H](NC(=O)N5CCC[C@H]5CO)c5ccccc5)[nH]4)cc3)cc2)[nH]1)c1ccccc1 [Compound 255] | < 1 nM
32 | COC(=O)N[C@@H](C(=O)N1CCC[C@H]1c1ncc(C#Cc2ccc(-c3ccc(-c4cnc([C@@H]5CCCN5C(=O)[C@@H](c5ccccc5)N5CCCCC5)[nH]4)cc3)cc2)[nH]1)c1ccccc1 [Compound 752] | < 1 nM
33 | COC(=O)N[C@H](C(=O)N1CCC[C@H]1c1ncc(-c2ccc(C#Cc3ccc(-c4cnc([C@@H]5CCCN5C(=O)[C@@H](c5ccccc5)N5CCOCC5)[nH]4)cc3)cc2)[nH]1)C(C)C [Compound 987] | < 1 nM
34 | COC(=O)N[C@H](C(=O)N1CCC[C@H]1c1ncc(-c2ccc(C#Cc3ccc4nc([C@@H]5CCCN5C(=O)[C@@H](c5ccccc5)N(C)C)[nH]c4c3)cc2)[nH]1)C(C)C [Compound 860] | < 1 nM
35 | CCN(CC)[C@@H](C(=O)N1CCC[C@H]1c1ncc(C#Cc2ccc(C#Cc3cnc([C@@H]4CCCN4C(=O)[C@H](NC(=O)OC)c4ccccc4)[nH]3)cc2)[nH]1)c1ccccc1 [Compound 315] | < 1 nM
